For the assay, the target named is T1, human androgen receptor (Homo sapiens, UniProt P10275).
T1 construct: expressed in transfected cells; host or cells: CHO cells, cell line CHO-AR-pMMTV-LUC 1G12-A5-CA
T1 sequence (P10275 1-920): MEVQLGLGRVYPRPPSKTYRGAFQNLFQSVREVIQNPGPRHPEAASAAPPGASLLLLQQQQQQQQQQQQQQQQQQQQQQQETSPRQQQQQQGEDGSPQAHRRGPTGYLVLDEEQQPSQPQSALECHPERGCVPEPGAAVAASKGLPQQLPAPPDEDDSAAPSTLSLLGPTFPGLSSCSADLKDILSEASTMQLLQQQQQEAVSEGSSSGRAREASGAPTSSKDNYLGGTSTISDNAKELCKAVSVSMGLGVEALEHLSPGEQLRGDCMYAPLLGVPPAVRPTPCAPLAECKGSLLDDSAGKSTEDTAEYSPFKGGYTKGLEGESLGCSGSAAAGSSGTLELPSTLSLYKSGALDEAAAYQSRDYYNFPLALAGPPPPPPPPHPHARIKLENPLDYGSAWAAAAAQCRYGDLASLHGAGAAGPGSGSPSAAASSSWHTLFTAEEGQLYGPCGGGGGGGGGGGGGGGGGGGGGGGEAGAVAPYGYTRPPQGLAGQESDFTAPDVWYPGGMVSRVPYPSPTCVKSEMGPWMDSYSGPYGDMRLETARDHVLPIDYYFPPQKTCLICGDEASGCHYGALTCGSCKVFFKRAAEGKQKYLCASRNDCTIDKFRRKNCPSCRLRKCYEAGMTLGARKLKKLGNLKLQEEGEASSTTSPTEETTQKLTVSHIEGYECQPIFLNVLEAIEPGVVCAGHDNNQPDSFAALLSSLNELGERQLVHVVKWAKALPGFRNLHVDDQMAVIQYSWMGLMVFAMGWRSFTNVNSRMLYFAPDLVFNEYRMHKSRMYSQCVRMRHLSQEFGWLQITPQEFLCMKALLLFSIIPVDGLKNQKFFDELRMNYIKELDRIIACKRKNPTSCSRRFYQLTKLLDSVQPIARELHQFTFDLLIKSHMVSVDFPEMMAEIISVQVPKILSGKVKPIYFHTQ
Description: androgenic activity (EC50, potency, efficacy), transactivation bioassay in CHO-AR-pMMTV-LUC cells in the presence of 0.1 μmol/l onapristone (Table 5). It counts as cell-based. The following applies: CHO-AR-pMMTV-LUC cells; for Emax: read-out: ago efficacy; for ago potency: potency expressed as percentage of DHT activity, in the presence of 0.1 μmol/l onapristone. How it is done: The androgenic activity (EC50, potency, and efficacy) of the compounds in Table 5 was determined in an in vitro bioassay of Chinese hamster ovary (CHO) cells stably transfected with the human androgen receptor expression plasmid and a reporter plasmid in which the MMTV promoter is linked to the luciferase reporter gene. The cell line CHO-AR-pMMTV-LUC 1G12-A5-CA is described in Schoonen et al. (J. Steroid Biochem. Moles. Biol. […]; 74: 213-222). The androgen receptor activity of compounds was determined in the presence of 0.1 μmol/l onapristone. The maximal efficacy in the presence of 100 nmol/l DHT was set as 100%. The potencies are expressed as percentage of DHT activity.

The mark [1] stands for this setting: maximal intrinsic activity, activity in the presence of 100 nM DHT set at 1.00, 0.1 μmol/l onapristone.

On to `O=C(Nc1ccc2c(Sc3ccccc3[N+](=O)[O-])cn(Cc3cc(F)cc(F)c3)c2c1)C(F)F` [Compound 98, N-[1-(3,5-Difluoro-benzyl)-3-(2-nitro-phenylsulfanyl)-1H-indol-6-yl]-2,2-difluoro-acetamide], for which the ago potency entry is given as “++ (>5%)”. Moreover, the Emax under setting [1] fell in the range of 50 to 80%.
With `CC(=O)Nc1ccc2c(Sc3ccccc3[N+](=O)[O-])cn(Cc3cccnc3)c2c1` [Compound 103, N-[3-(2-Nitro-phenylsulfanyl)-1-pyridin-3-ylmethyl-1H-indol-6-yl]-acetamide], the ago potency entry is “+ (between 1% and 5%)”. The Emax under setting [1] lay in the range of 50 to 80%.
As to `CS(=O)(=O)Nc1ccc2c(Sc3ccccc3[N+](=O)[O-])cn(Cc3cc(F)cc(F)c3)c2c1` [Compound 106, N-[1-(3,5-Difluoro-benzyl)-3-(2-nitro-phenylsulfanyl)-1H-indol-6-yl]-methanesulfonamide], the ago potency entry was “+ (between 1% and 5%)”. In addition, under setting [1], the Emax was over 80%.
Turning to `Cl.N#Cc1ccc2c(Sc3ccccc3[N+](=O)[O-])cn(Cc3ccccn3)c2c1` [Compound 120, 3-(2-Nitro-phenylsulfanyl)-1-pyridin-2-ylmethyl-1H-indol-6-carbonitrile monohydrochloride], the ago potency entry is “++ (>5%)”. Also, the ago efficacy entry under setting [1] was “++ (≧0.80)”.
Turning to `CC(=O)Nc1ccc2c(Sc3ccccc3[N+](=O)[O-])cn(Cc3ccccn3)c2c1` [Compound 101, N-[3-(2-Nitro-phenylsulfanyl]-1-pyridin-2-ylmethyl-1H-indol-6-yl]-acetamide], the ago potency result was “+ (between 1% and 5%)”. For the same compound, the Emax under setting [1] lay in the range of 50 to 80%.
Turning to `COc1ccc2c(Sc3ccccc3[N+](=O)[O-])cn(Cc3ccc(Cl)nc3)c2c1` [Compound 96, 1-(6-Chloro-pyridin-3-ylmethyl)-6-methoxy-3-(2-nitro-phenylsulfanyl)-1H-indole], the ago potency entry was “± (between 0.1% and 1%)”. For the same compound, the Emax under setting [1] is 20 to 50%.
As for `COc1ccc2c(Sc3ccccc3[N+](=O)[O-])cn(Cc3ccncn3)c2c1` [Compound 116, 6-Methoxy-3-(2-nitro-phenylsulfanyl)-1-pyrimidin-4-ylmethyl-1H-indole], the ago potency result was “+ (between 1% and 5%)”. Besides, the Emax under setting [1] is 50 to 80%.
With `NC(=O)c1ccc2c(Sc3ccccc3[N+](=O)[O-])cn(Cc3ccccn3)c2c1` [Compound 111, 3-(2-Nitro-phenylsulfanyl)-1-pyridin-2-ylmethyl-1H-indole-6-carboxylic acid amide], the ago potency result was “± (between 0.1% and 1%)”. Besides, under setting [1], the Emax was in the range of 20 to 50%.

Values taken from patent US8124647B2 (priority 2002, dated 2012).
